Counter-ions that a name gives are not always drawn. Like-named read-outs stand apart in the source and are kept apart here. Each block holds one compound with its values, some of them ahead of it.
Columns and labels:
[1] = test system: Snhg1 transcript (NMD target gene) in EMT6 murine breast cancer cell line; assay: Measurement of NMD inhibitory activity in cells (increase in Snhg1 transcript, real-time PCR); set-up: species or system mouse; conditions: 6 hours treatment, concentration giving 1/2 of maximum Snhg1 fold change of positive control, read-out: Test Example 2 Cell-based Snhg1 EC50
Method: The NMD inhibitory activity of a compound of the present invention or a pharmaceutically acceptable salt thereof in cells can be measured, for example, by the method described below. EMT6 murine breast cancer cell line is treated with a test substance in vitro for 6 hours, and the increase in the transcript of Snhg1, a known NMD target gene, is quantified as an indicator of NMD inhibition. Quantification is performed by real-time PCR.
NMD inhibitory activity was measured by treating EMT6 murine breast cancer cell line (ATCC) with a test substance and quantifying the increase in the transcript of Snhg1, an NMD target gene (see F. Usui, et al., Scientific Reports volume 9, Article number: 1279 (2019) for the NMD target gene). That is, EMT6 cells were suspended in Waymouth's medium (Gibco, 15% FBS) and seeded in a 96-well plate at 2×10^4 cells/well. The cells were cultured for 1 day. The next day, serially diluted test substance (DMSO solution, final DMSO concentration: 2%) was added. After culturing for 6 hours, the supernatant was removed, and RNA was extracted using the RNeasy 96 kit (QIAGEN, 74182). After synthesizing cDNA using the High Capacity cDNA Reverse Transcription kit (Applied Biosystems, 4368813), the cDNA was mixed with PrimeTime Gene Expression Master Mix (Integrated DNA Technologies) and various probes, and gene expression was quantified using QuantStudio 6 Flex (Thermo Fisher Scientific Inc.). For the probe for the Snhg1 gene, which is an NMD target, Mm.PT.58.44039547 (FAM)(Integrated DNA Technologies) was used, and for the probe for the Tbp gene, which is an endogenous control, Mm00446973_m1 Tbp (VIC-PL) (Applied Biosystems) was used. The relative quantification of Snhg1 transcripts was calculated by the ΔΔCT method, using Thp as an endogenous control and setting the expression level of Snhg1 in untreated wells to 1.
A known NMD inhibitory compound (pyrimidine derivative Example 11i, Bioorg Med Chem Lett. 2012, 22(21), 6636-41) was used as a positive control drug for NMD inhibition. The NMD inhibitory activity of the test substance-added well was calculated as follows: the maximum fold change in Sngh1 expression in the positive control drug-added well relative to that in the untreated well was defined as the maximum NMD inhibitory activity, and the EC50 (compound concentration showing 50%/activity) of the test substance showing a ½-fold change was calculated by the GROWTH function of Microsoft Excel.

human SMG1 enzyme = human SMG1 enzyme (Homo sapiens, UniProt Q96Q15); assay: Measurement of SMG1 kinase activity (ADP-Glo Kinase Assay); assay type: biochemical; conditions: purified human SMG1 enzyme 5 nM, Upf1 peptide substrate, ATP 4 μM; qAC50 synonymous with IC50; read-out: Test Example 1 ADP-Glo IC50
Excerpt: The SMG1 kinase inhibitory activity of a compound of the present invention or a pharmaceutically acceptable salt thereof can be measured, for example, by the method described below. Using purified human SMG1 protein and a substrate peptide as materials, the kinase activity can be measured by the ADP-Glo Kinase Assay; the SMG1 kinase inhibitory activity of a test substance can be evaluated by comparing the kinase activity in the presence and absence of the test substance.
The reaction was performed by the ADP-Glo Kinase Assay (Promega, catalog number V9102) using a 384-well plate under the conditions of an assay buffer (100 mM HEPES (pH 7.5), 50 mM NaCl, 10 mM MnCl2, 0.01% BSA, 0.1% Tween 20.5 mM TCEP). After incubating a test substance (DMSO solution; final DMSO concentration: 1%) and purified human SMG1 enzyme (Genes Dev. 2011 Jan. 15; 25(2): 153-164, produced by Daiichi Sankyo RD Novare Co., Ltd.; final concentration: 5 nM) at room temperature for 15 minutes, a substrate, Upf1 peptide (Biotin-(PEG8) QIDVALSQDSTYQG, produced by Eurofins genomics; final concentration: 8 μg/mL), and ATP (Promega: 4 μM) were added, and the mixture was reacted at room temperature for 60 minutes (see Non-Patent Literature R. Melero, et al., Structure Volume 22, Issue 8, 5 Aug. 2014, Pages 1105-1119 for the Upf1 peptide). ADP-Glo Reagent was added, and the mixture was reacted at room temperature for 40 minutes. Kinase Detection Reagent was added, and the mixture was reacted for another 30 minutes. The luminescence intensity was measured using EnVision (PerkinElmer).
The activity value (%) of the test substance-added well was calculated from the following formula, where the average luminescence intensity of the DMSO-added well was 0% and the average luminescence intensity of the SMG1 enzyme-free well was −100%.
The qAC50 (compound concentration showing 50% inhibition, synonymous with IC50) of the test substance was calculated using the activity value (%) at each concentration by Smart fit of Screener (Genedata). Smart fit is a general 4-parameter logistic regression model.

Chain of human SMG1 enzyme (Q96Q15 whole entry): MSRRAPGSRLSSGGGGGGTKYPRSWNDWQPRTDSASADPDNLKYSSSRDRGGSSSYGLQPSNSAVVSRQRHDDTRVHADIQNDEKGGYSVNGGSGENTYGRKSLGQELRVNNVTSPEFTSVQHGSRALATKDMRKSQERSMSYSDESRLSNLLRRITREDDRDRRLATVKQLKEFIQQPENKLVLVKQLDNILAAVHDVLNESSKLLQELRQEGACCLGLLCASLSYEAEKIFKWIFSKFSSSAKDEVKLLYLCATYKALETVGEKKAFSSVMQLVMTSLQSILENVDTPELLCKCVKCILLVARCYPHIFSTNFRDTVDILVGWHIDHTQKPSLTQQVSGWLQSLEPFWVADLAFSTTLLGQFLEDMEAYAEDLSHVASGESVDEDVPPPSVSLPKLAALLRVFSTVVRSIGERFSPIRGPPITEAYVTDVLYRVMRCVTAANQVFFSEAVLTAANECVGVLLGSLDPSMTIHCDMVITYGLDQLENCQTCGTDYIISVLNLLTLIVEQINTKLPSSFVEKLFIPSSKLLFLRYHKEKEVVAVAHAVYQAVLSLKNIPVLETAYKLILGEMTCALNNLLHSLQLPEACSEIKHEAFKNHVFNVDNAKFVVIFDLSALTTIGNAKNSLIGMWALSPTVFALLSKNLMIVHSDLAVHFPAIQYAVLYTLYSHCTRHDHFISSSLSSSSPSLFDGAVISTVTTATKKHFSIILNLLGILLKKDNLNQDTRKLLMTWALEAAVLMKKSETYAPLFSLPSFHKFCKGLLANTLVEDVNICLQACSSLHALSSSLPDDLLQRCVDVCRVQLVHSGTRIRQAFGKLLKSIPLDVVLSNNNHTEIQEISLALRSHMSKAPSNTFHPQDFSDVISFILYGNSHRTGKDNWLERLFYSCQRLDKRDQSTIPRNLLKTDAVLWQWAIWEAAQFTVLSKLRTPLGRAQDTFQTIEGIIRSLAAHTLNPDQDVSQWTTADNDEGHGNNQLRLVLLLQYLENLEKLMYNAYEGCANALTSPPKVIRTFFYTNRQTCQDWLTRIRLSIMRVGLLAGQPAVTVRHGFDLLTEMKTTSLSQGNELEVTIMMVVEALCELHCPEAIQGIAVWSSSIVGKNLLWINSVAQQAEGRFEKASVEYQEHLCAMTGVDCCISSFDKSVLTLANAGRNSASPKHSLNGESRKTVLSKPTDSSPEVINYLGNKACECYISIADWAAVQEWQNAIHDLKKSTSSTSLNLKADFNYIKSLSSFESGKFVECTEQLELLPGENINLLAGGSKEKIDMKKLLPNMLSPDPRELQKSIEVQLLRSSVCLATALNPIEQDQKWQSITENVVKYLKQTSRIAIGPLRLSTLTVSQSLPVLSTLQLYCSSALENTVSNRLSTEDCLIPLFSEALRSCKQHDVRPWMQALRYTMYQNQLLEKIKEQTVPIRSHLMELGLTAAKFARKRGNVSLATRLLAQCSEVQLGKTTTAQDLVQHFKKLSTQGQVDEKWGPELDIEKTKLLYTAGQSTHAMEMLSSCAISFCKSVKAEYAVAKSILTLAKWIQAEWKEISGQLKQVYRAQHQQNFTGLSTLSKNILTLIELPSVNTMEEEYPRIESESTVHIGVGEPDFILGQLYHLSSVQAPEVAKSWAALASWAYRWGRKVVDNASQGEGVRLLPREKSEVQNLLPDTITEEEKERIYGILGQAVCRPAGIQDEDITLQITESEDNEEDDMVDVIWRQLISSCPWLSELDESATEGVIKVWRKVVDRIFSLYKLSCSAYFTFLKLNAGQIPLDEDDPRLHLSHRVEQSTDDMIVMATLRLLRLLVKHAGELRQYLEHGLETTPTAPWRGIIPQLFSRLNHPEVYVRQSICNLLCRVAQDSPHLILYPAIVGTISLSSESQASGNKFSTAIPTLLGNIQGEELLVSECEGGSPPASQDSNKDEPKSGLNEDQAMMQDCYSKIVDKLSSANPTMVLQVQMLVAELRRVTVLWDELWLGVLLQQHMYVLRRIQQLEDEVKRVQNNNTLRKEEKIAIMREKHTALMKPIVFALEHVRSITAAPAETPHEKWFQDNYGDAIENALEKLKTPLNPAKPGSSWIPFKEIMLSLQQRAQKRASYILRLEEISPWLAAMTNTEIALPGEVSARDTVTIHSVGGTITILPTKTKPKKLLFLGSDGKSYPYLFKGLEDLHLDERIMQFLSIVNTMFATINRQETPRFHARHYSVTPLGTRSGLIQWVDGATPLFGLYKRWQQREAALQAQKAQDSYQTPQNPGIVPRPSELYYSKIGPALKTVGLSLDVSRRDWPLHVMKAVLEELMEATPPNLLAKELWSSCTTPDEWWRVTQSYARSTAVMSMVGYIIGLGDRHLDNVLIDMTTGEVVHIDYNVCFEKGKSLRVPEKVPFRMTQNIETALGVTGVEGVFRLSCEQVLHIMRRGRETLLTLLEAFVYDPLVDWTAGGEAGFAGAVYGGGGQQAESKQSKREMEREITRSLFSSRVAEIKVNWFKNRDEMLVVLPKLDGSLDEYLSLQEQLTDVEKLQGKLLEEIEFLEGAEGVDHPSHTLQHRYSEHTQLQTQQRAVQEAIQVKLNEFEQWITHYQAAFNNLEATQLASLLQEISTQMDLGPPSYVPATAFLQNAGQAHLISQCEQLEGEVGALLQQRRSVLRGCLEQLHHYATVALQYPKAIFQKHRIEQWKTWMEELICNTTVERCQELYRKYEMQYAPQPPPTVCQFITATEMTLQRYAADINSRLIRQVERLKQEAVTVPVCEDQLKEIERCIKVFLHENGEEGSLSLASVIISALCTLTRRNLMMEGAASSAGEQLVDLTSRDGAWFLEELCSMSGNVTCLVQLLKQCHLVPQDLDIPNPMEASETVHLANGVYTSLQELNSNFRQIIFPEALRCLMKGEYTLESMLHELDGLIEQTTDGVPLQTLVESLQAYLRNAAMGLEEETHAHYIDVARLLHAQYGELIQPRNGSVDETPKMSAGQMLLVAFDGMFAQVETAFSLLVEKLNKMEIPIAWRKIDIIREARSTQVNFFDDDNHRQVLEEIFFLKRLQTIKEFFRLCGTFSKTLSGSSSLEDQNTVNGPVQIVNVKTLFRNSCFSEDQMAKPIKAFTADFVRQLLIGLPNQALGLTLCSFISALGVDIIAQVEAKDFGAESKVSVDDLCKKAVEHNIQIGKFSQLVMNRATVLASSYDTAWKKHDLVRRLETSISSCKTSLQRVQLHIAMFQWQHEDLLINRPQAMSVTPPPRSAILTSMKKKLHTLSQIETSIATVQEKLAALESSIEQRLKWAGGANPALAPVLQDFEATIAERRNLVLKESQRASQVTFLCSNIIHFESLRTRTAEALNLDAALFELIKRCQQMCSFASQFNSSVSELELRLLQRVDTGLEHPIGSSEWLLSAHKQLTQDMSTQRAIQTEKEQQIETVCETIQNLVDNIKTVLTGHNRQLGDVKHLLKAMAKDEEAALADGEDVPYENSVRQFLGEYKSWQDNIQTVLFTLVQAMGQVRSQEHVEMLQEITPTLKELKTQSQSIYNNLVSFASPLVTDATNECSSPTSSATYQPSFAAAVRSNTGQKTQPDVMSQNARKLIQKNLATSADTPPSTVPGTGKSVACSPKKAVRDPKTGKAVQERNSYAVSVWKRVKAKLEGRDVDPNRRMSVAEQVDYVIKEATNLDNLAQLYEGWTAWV

Compound: 5-(2-chloro-6-fluorophenyl)-3-(6-chloro-1H-imidazo[4,5-c]pyridin-2-y1)-1,6-naphthyridin-2(1H)-one [Example 30]
EC50 [1]: 40 nM
IC50 (human SMG1 enzyme): 1.9 nM

Compound: C[C@@H]1COCCN1c1nc(Cl)cc2[nH]c(-c3cc4c(C5(C)CC5)nccc4[nH]c3=O)nc12 [Example 2, 3-{6-chloro-4-[(3R)-3-methylmorpholin-4-yl]-1H-imidazo[4,5-c]pyridin-2-yl}-5-(1-methylcyclopropyl)-1,6-naphthyridin-2(1H)-one]
EC50 ([1]; Mus musculus): 94 nM
IC50 (human SMG1 enzyme): 4.9 nM

Compound: C[C@@H]1COCCN1c1nc(Cl)cc2[nH]c(-c3cc4cnc(C5=CCCN(C)C5)cc4[nH]c3=O)nc12 [Example 3, 3-{6-chloro-4-[(3R)-3-methylmorpholin-4-yl]-1H-imidazo[4,5-c]pyridin-2-yl}-7-(1-methyl-1,2,5,6-tetrahydropyridin-3-yl)-1,6-naphthyridin-2(1H)-one]
EC50 ([1]; Mus musculus): 161 nM
IC50 (human SMG1 enzyme): 4.6 nM

Compound: O=c1[nH]c2ccncc2cc1-c1nc2c(N3CCOC[C@H]3C(F)F)nc(Cl)cc2[nH]1 [Example 4, 3-{6-chloro-4-[(3S)-3-(difluoromethyl)morpholin-4-yl]-1H-imidazo[4,5-c]pyridin-2-yl}-1,6-naphthyridin-2(1H)-one]
EC50 ([1]; Mus musculus): 41 nM
IC50 (human SMG1 enzyme): 2.4 nM

Compound: CN(c1nc(Cl)cc2[nH]c(-c3cc4cnccc4[nH]c3=O)nc12)[C@H]1CC[C@H](O)CC1 [Example 5, 3-{6-chloro-4-[(trans-4-hydroxycyclohexyl)(methyl)amino]-1H-imidazo[4,5-c]pyridin-2-yl}-1,6-naphthyridin-2(1H)-one]
EC50 ([1]; Mus musculus): 30 nM
IC50 (human SMG1 enzyme): 1.4 nM

Compound: CC(C1CCOCC1)N(C)c1nc(Cl)cc2[nH]c(-c3cc4cnccc4[nH]c3=O)nc12 (stereo not shown) [Example 6, 3-(6-chloro-4-{methyl[1-(tetrahydro-2H-pyran-4-yl)ethyl]amino}-1H-imidazo[4,5-c]pyridin-2-yl)-1,6-naphthyridin-2(1H)-one]
EC50 ([1]; Mus musculus): 8.6 nM
IC50 (human SMG1 enzyme): 1.4 nM

Compound: C[C@@H](Nc1nc(Cl)cc2[nH]c(-c3cc4c(N5CCN(C)CC5)nccc4[nH]c3=O)nc12)C(F)(F)F [Example 7, 3-(6-chloro-4-{[(2R)-1,1,1-trifluoropropan-2-yl]amino}-1H-imidazo[4,5-c]pyridin-2-yl)-5-(4-methylpiperazin-1-yl)-1,6-naphthyridin-2(1H)-one]
EC50 ([1]; Mus musculus): 95 nM
IC50 (human SMG1 enzyme): 6 nM

Compound: NC1CN(c2nc(Cl)cc3[nH]c(-c4cc5cnccc5[nH]c4=O)nc23)CC(F)(F)C1 (stereo not shown) [Example 9, 3-[4-(5-amino-3,3-difluoropiperidin-1-yl)-6-chloro-1H-imidazo[4,5-c]pyridin-2-yl]-1,6-naphthyridin-2(1H)-one trifluoroacetate]
EC50 ([1]; Mus musculus): 122 nM
IC50 (human SMG1 enzyme): 4 nM

Compound: Cc1cc2[nH]c(=O)c(-c3nc4c(C5CCOCC5)nc(Cl)cc4[nH]3)cc2c(C)n1 [Example 18, 3-[6-chloro-4-(tetrahydro-2H-pyran-4-yl)-1H-imidazo[4,5-c]pyridin-2-yl]-5,7-dimethyl-1,6-naphthyridin-2(1H)-one]
EC50 ([1]; Mus musculus): 43 nM
IC50 (human SMG1 enzyme): 0.57 nM

Compound: CCCc1nc(Cl)cc2[nH]c(-c3cc4c(C)nccc4[nH]c3=O)nc12 [Example 20, 3-(6-chloro-4-propyl-1H-imidazo[4,5-c]pyridin-2-yl)-5-methyl-1,6-naphthyridin-2(1H)-one]
EC50 ([1]; Mus musculus): 13 nM
IC50 (human SMG1 enzyme): 2 nM

Compound: Nc1cccc(-c2nc(Cl)cc3[nH]c(-c4cc5cnccc5[nH]c4=O)nc23)c1 [Example 24, 3-[4-(3-aminophenyl)-6-chloro-1H-imidazo[4,5-c]pyridin-2-yl]-1H-1,6-naphthyridin-2-one trifluoroacetate]
EC50 ([1]; Mus musculus): 76 nM
IC50 (human SMG1 enzyme): 2.2 nM

Results, then the compound that gave them:

EC50 ([1]; Mus musculus): 39 nM
IC50 (human SMG1 enzyme): 1.8 nM
Compound: O=c1[nH]c2ccncc2cc1-c1nc2c(-c3ccccc3F)nc(Cl)cc2[nH]1 [Example 25, 3-[6-chloro-4-(2-fluorophenyl)-1H-imidazo[4,5-c]pyridin-2-yl]-1,6-naphthyridin-2(1H)-one]

EC50 ([1]; Mus musculus): 2.8 nM
IC50 (human SMG1 enzyme): 1 nM
Compound: CCc1nc(Cl)cc2[nH]c(-c3cc4c(-c5ccccc5F)nccc4[nH]c3=O)nc12 [Example 27, 3-(6-chloro-4-ethy1-1H-imidazo[4,5-c]pyridin-2-y1)-5-(2-fluorophenyl)-1,6-naphthyridin-2(1H)-one]

EC50 ([1]; Mus musculus): 48 nM
IC50 (human SMG1 enzyme): 3 nM
Compound: Cc1c(OC(F)F)cccc1-c1nccc2[nH]c(=O)c(-c3nc4cnc(Cl)cc4[nH]3)cc12 [Example 33, 3-(6-chloro-1H-imidazo[4,5-c]pyridin-2-y1)-5-[3-(difluoromethoxy)-2-methylpheny1]-1,6-naphthyridin-2(1H)-one]

EC50 ([1]; Mus musculus): 19 nM
IC50 (human SMG1 enzyme): 1.9 nM
Compound: [2H]C([2H])([2H])Oc1ccccc1-c1nccc2[nH]c(=O)c(-c3nc4c(C5CC5)nc(Cl)cc4[nH]3)cc12 [Example 39, 3-(6-chloro-4-cyclopropyl-1H-imidazo[4,5-c]pyridin-2-yl)-5-{2-[(^2H3)methyloxy]phenyl}-1,6-naphthyridin-2(1H)-one]

EC50 ([1]; Mus musculus): 11 nM
IC50 (human SMG1 enzyme): 0.53 nM
Compound: [2H]C([2H])([2H])Oc1ccccc1-c1nccc2[nH]c(=O)c(-c3nc4c(C(C)O)nc(Cl)cc4[nH]3)cc12 (stereo not shown) [Example 40, 3-[6-chloro-4-(1-hydroxyethyl)-1H-imidazo[4,5-c]pyridin-2-yl]-5-{2-[(^2H3)methyloxy]phenyl}-1,6-naphthyridin-2(1H)-one]

EC50 ([1]; Mus musculus): 4.8 nM
IC50 (human SMG1 enzyme): 1.1 nM
Compound: [2H]C([2H])([2H])Oc1ccccc1-c1nccc2[nH]c(=O)c(-c3nc4c(C(C)F)nc(Cl)cc4[nH]3)cc12 (stereo not shown) [Example 41, 3-[6-chloro-4-(1-fluoroethyl)-1H-imidazo[4,5-c]pyridin-2-yl]-5-{2-[(^2H3)methyloxy]phenyl}-1,6-naphthyridin-2(1H)-one]

EC50 ([1]; Mus musculus): 124 nM
IC50 (human SMG1 enzyme): 2.6 nM
Compound: [2H]C([2H])([2H])Oc1ccccc1-c1nccc2[nH]c(=O)c(-c3nc4c(CC(=O)NC(C)(C)C)nc(Cl)cc4[nH]3)cc12 [Example 42, N-tert-butyl-2-[6-chloro-2-(5-{2-[(^2H3)methyloxy]phenyl}-2-oxo-1,2-dihydro-1,6-naphthyridin-3-yl)-1H-imidazo[4,5-c]pyridin-4-yl]acetamide]

EC50 ([1]; Mus musculus): 24 nM
IC50 (human SMG1 enzyme): 0.97 nM
Compound: [2H]C([2H])([2H])Oc1ccccc1-c1nccc2[nH]c(=O)c(-c3nc4c(N5CCNC(=O)C5)nc(Cl)cc4[nH]3)cc12 [Example 43, 3-[6-chloro-4-(3-oxopiperazin-1-yl)-1H-imidazo[4,5-c]pyridin-2-yl]-5-{2-[(^2H3)methyloxy]phenyl}-1,6-naphthyridin-2(1H)-one]

EC50 ([1]; Mus musculus): 54 nM
IC50 (human SMG1 enzyme): 0.5 nM
Compound: [2H]C([2H])([2H])Oc1ccccc1-c1nccc2[nH]c(=O)c(-c3nc4c(N=S(C)(C)=O)nc(Cl)cc4[nH]3)cc12 [Example 44, 3-(6-chloro-4-{[dimethyl(oxide)-A6-sulfanylidene]amino}-1H-imidazo[4,5-c]pyridin-2-yl)-5-{2-[(^2H3)methyloxy]phenyl}-1,6-naphthyridin-2(1H)-one]

— patent US20260109715A1, “IMIDAZOPYRIDINE DERIVATIVES WITH BICYCLIC STRUCTURE” (PUBLIC UNIVERSITY CORPORATION YOKOHAMA CITY UNIVERSITY, priority 2022, published 2026)
